Measured values as given in patent publication US20170119034A1, “COMPOSITIONS AND METHODS FOR MODIFYING PERCEPTION OF SWEET TASTE” (University of Florida Research Foundation, Inc., priority 2012, published 2017).

Tests used:
[1] = test system: perceived sweetness of tomato fruit (consumer panel); conditions: analysis of a volatile subset (Tieman 2012); cited from earlier work
[2] = test system: tomato flavor intensity (consumer panel); test: Tomato consumer taste panel: overall tomato flavor intensity (gLMS) versus fruit chemical content; format: in vivo, human; conditions: for association with flavor intensity: univariate models
Protocol: (§1) Sensory analysis. Fully ripe fruit were harvested, and used for taste panels. A random subset of fruit was used for biochemical analysis. Three biological replicates, each consisting of 2-20 fruit (depending on fruit size), were assayed for each variety. […] Panelists were between the ages of 18 and 78 with a median age of 22. […] An average of 85 (range of 66-95) of these panelists evaluated between 4-6 varieties in a session. All panelists went through a training session to familiarize them with the scaling and procedures. Tomatoes were sliced into wedges (or in halves for grape/cherry types) and each panelist was given two pieces for evaluation. Panelists took a bite of each sample, chewed and swallowed it, and rated overall liking and liking for texture. They then rated the perceived intensities of sweetness, sourness, saltiness, umami sensation, bitterness and overall tomato flavor. They were free to take as many bites as necessary to complete the assessments. They were instructed to take a bite of an unsalted cracker and a sip of water between samples. Samples were presented to the panelists in a randomized order. Hedonic ratings used the hedonic gLMS. This scale assesses the liking for tomatoes in the context of all pleasure/displeasure experiences: 0=neutral, −100=strongest disliking of any kind experienced, and +100=strongest liking of any kind experienced. Sensory intensity ratings used the gLMS (7, 8, 19).This scale assesses taste and flavor sensations in the context of all sensory experience (7): 0=no sensation, 100=strongest sensation of any kind experienced. Both scales were devised to provide valid comparisons across subjects.
(§2) Statistical analysis. The 68 chemical compounds measured in this experiment were divided into six groups based upon biochemical properties: sugars, branched chain amino acids, lipids, carotenoids, phenolics, and acids. A small number of compounds for which biosynthetic pathways are not established were assigned to one of the six classes based upon their correlations with other classified compounds. All pairwise correlations among the set of 68 compounds were calculated. Correlation coefficients were sorted using Modulated Modularity Clustering (MMC) (9) as a visual aid for identifying compounds that are closely related in this sample (FIG. 1; Table 4). Biochemical groups were examined for compounds within the group that were highly correlated and compounds that were upstream in the relevant metabolic pathways were preferentially selected.
(§3) All analyses were performed in SAS v 9.2.

[3] = test system: perceived sourness of tomato fruit (consumer panel); test: Tomato consumer taste panel: sourness intensity versus fruit chemical content; format: in vivo, human; conditions: volatile-induced sourness independent of citric acid
Protocol: Sensory analysis. Fully ripe fruit were harvested, and used for taste panels. A random subset of fruit was used for biochemical analysis. Three biological replicates, each consisting of 2-20 fruit (depending on fruit size), were assayed for each variety. A group of 170 tomato consumers (64 male, 106 female) were recruited to evaluate all the varieties. Panelists were between the ages of 18 and 78 with a median age of 22. Panelists self-classified themselves as 101 White/Caucasian, 14 Black/African-American, 32 Asian/Pacific and […]. An average of 85 (range of 66-95) of these panelists evaluated between 4-6 varieties in a session. All panelists went through a training session to familiarize them with the scaling and procedures. Tomatoes were sliced into wedges (or in halves for grape/cherry types) and each panelist was given two pieces for evaluation. Panelists took a bite of each sample, chewed and swallowed it, and rated overall liking and liking for texture. They then rated the perceived intensities of sweetness, sourness, saltiness, umami sensation, bitterness and overall tomato flavor. They were free to take as many bites as necessary to complete the assessments. They were instructed to take a bite of an unsalted cracker and a sip of water between samples. Samples were presented to the panelists in a randomized order. Hedonic ratings used the hedonic gLMS. […]

[4] = test system: perceived sweetness of tomato fruit (consumer panel); test: Tomato consumer taste panel: perceived sweetness (gLMS) regressed on fruit chemical content; format: in vivo, human; conditions: tomato; for correlation with sweetness: direction of correlation; for contribution to perceived sweetness: multiple regression analysis using the volatiles; for association with sweetness: univariate models
Protocol: as §1, §2, §3
In conducting the multiple regression analysis on the tomato data set, the independent variables were the sugar content (glucose+fructose), and the flavor (indicated by the retronasal perception of volatiles), while the dependent variable was the perceived sweetness.

CCC(C)C=O (centres unmarked) [2-methylbutanal]
enhancing sweetness intensity independent of fructose [1]: enhancing sweetness intensity independent of fructose | association with flavor intensity after accounting for fructose [2]: independently significant after accounting for fructose | association with flavor intensity [2]: associated with flavor intensity in univariate models | contribution to sourness [3]: contributed to this sourness | association with sweetness after accounting for fructose [4]: independent predictors of sweetness after accounting for fructose | correlation with sweetness [4]: negatively correlated with sweetness | contribution to perceived sweetness [4]: inhibitory effect | association with sweetness [4]: showed evidence for association with sweetness in univariate models

CC(C)CCO [3-methyl-1-butanol]
enhancing sweetness intensity independent of fructose [1]: enhancing sweetness intensity independent of fructose | association with flavor intensity after accounting for fructose ([2]; listed as 3-methyl-1-butenol): independently significant after accounting for fructose | association with flavor intensity [2]: associated with flavor intensity in univariate models | association with sweetness after accounting for fructose [4]: independent predictors of sweetness after accounting for fructose | association with sweetness [4]: showed evidence for association with sweetness in univariate models

CSCCC=O [methional]
association with flavor intensity [2]: associated with flavor intensity in univariate models | association with sweetness [4]: showed evidence for association with sweetness in univariate models

CC(C)=CCC/C(C)=C/C=O [geranial]
enhancing sweetness intensity independent of fructose [1]: enhancing sweetness intensity independent of fructose | association with flavor intensity [2]: associated with flavor intensity in univariate models | association with sweetness after accounting for fructose [4]: independent predictors of sweetness after accounting for fructose | correlation with sweetness [4]: positively correlated with sweetness | contribution to perceived sweetness [4]: positive contributor to perceived sweetness | association with sweetness [4]: showed evidence for association with sweetness in univariate models

O=C(CO)[C@@H](O)[C@H](O)[C@H](O)CO [fructose]
association with flavor intensity [2]: associated with flavor intensity in univariate models | association with sweetness [4]: showed evidence for association with sweetness in univariate models
